{"source": "patent US20220233512A1", "about": "“INHIBITING AN IMMUNE RESPONSE MEDIATED BY ONE OR MORE OF TLR2, RAGE, CCR5, CXCR4 AND CD4” (priority 2020, published 2022)", "key": {"[1]": {"tested_on": "human astrocyte TLR2 receptors", "test": "Release of pro-inflammatory cytokines from primary human astrocytes", "format": "cell-based", "experimental": "A primary astrocyte culture was prepared according to the provider (Lonza). The adherent astrocytes were trypsinized by 0.25% trypsin-EDTA, then collected and sub-cultured in 12-well plate (1.2 ml/well). When the cells were 80-85% confluent, cells were treated in an incubator under 5% CO2 with 100 fM, 10 pM or 1 nM Compound C0105 immediately followed by the addition of Ab42 ([…]), LPS (1 mg/ml), LTA-SA (1 mg/ml) and PGN-SA (10 mg/ml); i.e., simultaneously adding the insulting ligand and Compound C0105 to the cells. Vehicle groups were treated with 0.1% DMSO only. Incubation continued for 24 hours post addition. Culture medium was used as the blank (non-treat) and the levels of cytokines, TNF-a, IL-6 and IL-1b in 200 ml of culture medium were determined. Each well was sampled once.\nPlates were washed 3 times with ice-cold 50 mM Tris HCl (pH 7.4) and incubated at 30° C. with 200 ml medium derived from the above-mentioned conditions. […] Plates were washed twice with 200 ml ice-cold Tris HCl, pH 7.4 and the residual FITC signals were determined by multimode plate reader, DTX880 (Beckman).\nA primary astrocyte culture was prepared according to the provider (Lonza). […] Culture medium was used as the blank (non-treat) and the levels of cytokines, TNF-a, IL-6 and IL-1b in 200 ml of culture medium were determined. […]"}, "[2]": {"tested_on": "mild-to-moderate AD patients", "test": "Clinical studies of sumifilam in Alzheimer's disease patients", "format": "in vivo, human", "description": "FIG. 7, in two panels as FIGS. 7A and 7B, graphically illustrates some of the results of a Phase 2b Clinical study of the effects of Compound C0105, now known as sumifilam, on 64 mild-to-moderate AD patients, mini-mental state examination (MMSE) value of ≥16≤26, age 50-85 years, with a key inclusion at screening of CFS Total tau/ab≥0.28. The patients were divided into three groups, and each group was given one of three tablet dosages twice daily for 28 days. One patient group received a placebo, another received tablets containing 50 mg of sumifilam and the third received tablets containing 100 mg of sumifilam. Lumbar puncture screening of CFS and blood were taken prior to any administration and at day 28. […] FIG. 7B repeats the results shown in FIG. 7A and includes results for the additional neuroinflammation markers YKL-40 (a glycoprotein produced by inflammatory, cancer and stem cells), interleukin-6 (IL-6), soluble triggering receptor expressed on myeloid cells 2 (sTREM2), albumin (a marker for blood-brain-barrier permeability) and IgG antibodies. Stronger significance levels occurred in the 100 mg group. Data are means±SEM. *p≤0.0001, #p≤0.001, †p<0.01 and +p<0.05 versus placebo. N=22, 18 and 19 for placebo, 50 mg and 100 mg, respectively. […]"}, "FLNA": {"biological_target": "T1, FLNA (Mus musculus, UniProt Q8BTM8)", "T1 construct": "pI of FLNA from the brains of naïve mice; from tissue; host or cells: mouse brain (in vivo treated animals)", "T1 sequence (Q8BTM8 whole entry, the tested form may be a part)": "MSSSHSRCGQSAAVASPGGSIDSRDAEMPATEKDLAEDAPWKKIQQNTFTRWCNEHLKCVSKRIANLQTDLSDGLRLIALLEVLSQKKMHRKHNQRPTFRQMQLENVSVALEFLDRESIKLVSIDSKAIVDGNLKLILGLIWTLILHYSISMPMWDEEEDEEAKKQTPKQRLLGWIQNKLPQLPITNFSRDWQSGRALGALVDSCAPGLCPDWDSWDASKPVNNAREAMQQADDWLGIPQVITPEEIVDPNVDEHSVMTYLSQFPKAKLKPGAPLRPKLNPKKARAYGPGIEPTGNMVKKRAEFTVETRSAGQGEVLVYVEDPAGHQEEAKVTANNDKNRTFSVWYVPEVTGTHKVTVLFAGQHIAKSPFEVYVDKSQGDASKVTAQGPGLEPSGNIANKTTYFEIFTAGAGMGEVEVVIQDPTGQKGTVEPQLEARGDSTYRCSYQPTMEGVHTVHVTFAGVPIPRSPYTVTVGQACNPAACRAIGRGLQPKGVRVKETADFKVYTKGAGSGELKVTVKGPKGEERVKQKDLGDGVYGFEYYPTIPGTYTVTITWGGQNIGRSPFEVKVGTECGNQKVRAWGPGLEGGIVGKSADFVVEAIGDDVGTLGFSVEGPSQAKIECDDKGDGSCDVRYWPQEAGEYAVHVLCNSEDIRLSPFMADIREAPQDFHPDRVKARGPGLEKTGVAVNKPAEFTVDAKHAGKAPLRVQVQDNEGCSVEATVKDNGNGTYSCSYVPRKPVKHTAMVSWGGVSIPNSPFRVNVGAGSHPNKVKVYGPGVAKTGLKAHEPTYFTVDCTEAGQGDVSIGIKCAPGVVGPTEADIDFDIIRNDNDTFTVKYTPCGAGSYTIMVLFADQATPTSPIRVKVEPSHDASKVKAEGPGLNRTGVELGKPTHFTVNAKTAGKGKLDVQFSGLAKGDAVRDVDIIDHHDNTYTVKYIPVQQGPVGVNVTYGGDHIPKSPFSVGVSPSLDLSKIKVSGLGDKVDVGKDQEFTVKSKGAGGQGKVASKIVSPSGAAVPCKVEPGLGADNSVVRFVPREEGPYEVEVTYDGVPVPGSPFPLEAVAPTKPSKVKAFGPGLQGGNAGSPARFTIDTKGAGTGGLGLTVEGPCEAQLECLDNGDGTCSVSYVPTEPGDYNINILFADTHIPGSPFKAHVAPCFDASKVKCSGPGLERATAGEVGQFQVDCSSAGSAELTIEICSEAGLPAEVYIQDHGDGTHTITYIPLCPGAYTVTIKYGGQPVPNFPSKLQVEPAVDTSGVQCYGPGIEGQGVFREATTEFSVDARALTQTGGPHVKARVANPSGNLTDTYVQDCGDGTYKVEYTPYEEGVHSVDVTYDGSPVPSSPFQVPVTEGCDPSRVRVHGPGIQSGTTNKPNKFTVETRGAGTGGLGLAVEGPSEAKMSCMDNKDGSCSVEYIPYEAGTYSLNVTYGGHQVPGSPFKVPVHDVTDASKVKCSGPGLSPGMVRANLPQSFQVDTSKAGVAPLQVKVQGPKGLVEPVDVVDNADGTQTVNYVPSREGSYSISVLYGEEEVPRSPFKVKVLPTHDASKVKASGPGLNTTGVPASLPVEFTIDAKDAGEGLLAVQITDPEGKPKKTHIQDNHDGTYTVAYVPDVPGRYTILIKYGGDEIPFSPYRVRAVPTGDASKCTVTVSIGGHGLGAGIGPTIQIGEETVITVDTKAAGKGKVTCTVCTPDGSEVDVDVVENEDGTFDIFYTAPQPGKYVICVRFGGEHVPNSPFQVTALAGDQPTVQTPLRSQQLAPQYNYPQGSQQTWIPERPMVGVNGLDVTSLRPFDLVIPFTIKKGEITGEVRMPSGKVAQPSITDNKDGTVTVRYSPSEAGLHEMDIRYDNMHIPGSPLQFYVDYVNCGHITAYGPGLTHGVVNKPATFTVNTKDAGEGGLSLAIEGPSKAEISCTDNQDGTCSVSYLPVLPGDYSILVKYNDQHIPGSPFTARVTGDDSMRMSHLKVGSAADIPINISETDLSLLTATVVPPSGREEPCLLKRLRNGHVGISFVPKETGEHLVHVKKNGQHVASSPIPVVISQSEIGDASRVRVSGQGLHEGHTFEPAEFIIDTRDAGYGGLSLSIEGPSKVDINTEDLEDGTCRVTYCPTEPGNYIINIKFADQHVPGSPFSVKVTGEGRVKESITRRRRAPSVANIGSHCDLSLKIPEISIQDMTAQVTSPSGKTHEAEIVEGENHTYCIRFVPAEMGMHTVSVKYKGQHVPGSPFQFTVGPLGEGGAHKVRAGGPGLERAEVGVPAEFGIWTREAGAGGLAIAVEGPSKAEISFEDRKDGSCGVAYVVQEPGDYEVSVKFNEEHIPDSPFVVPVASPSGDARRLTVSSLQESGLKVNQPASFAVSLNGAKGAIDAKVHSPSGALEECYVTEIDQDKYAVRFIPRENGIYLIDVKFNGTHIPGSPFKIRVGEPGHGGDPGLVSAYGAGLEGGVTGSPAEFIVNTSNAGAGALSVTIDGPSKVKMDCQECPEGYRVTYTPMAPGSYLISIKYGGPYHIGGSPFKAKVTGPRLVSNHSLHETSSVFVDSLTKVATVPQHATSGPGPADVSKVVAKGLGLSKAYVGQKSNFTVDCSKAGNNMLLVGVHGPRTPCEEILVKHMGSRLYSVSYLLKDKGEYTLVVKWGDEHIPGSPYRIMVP", "conditions": "20-22 mg/kg in vivo; Ab42-infused, 3xTg AD and aged wild-type mice (untreated 5.3); Wang et al. 2017; cited from earlier work"}}}
{"smiles": "CN1CCC2(CC1)NCC(=O)N2Cc1ccccc1", "note": "[Compound C0105M]", "values": [{"measurement": "Ab42-induced inflammatory cytokine production (in words)", "setting": "[1]; Ab42 exposure", "result": "nearly abolishes this cytokine production"}, {"measurement": "Release of the three pro-inflammatory cytokines (in words)", "setting": "[1]; LTA-SA or PGN-SA insult, human astrocytes", "result": "substantially inhibited the release"}, {"measurement": "Immunoinflammatory cytokines in treated patients", "setting": "[2]; 50 or 100 mg twice daily, 28-day and 6-month studies", "result": "reduction in the immunoinflammatory cytokines"}, {"measurement": "Amount of HMGB1 in CSF", "setting": "[2]; Phase 2b, 50 mg or 100 mg tablets twice daily for 28 days, p<0.001 relative to placebo", "result": "decreased significantly"}, {"measurement": "pI of FLNA from brain after treatment", "setting": "FLNA", "result": 5.9}]}
